These are literature values, as cited in paper PMC8364686, “Safety, tolerability, pharmacokinetics and pharmacodynamics of single oral doses of BI 187004, an inhibitor of 11beta-hydroxysteroid dehydrogenase-1, in healthy male volunteers with overweight or obesity” (Clinical Diabetes and Endocrinology, 2021).

Series [1] relates to 11beta-HSD1 in AT. Conditions: single dose, cited from earlier work.
Series [2] has as its system 11beta-HSD1. As to conditions: cited from earlier work.

Structures are written as SMILES. Like-named read-outs stand apart in the source and are kept apart here.

As to `CC(C)[C@]1(C)SC(=N[C@H]2C[C@@H]3CC[C@H]2C3)NC1=O` [AMG 221], the “11beta-HSD1 inhibition in AT” value in series [1] (24-h study duration) was over 90%.
For the compound `CCCSc1nc(N2CCC[C@@H](CC(=O)O)C2)ccc1C(=O)NC1CCCCC1` [AZD4017], the “Maximum decrease in urinary (aTHF + THF)/THE ratio” value in series [2] (highest dose of 900 mg, after 9 days) is 92%.
As for `C[C@@H](c1ccc(-c2ccn(C)c(=O)c2)cc1)N1CC[C@](CC(C)(C)O)(c2ccccc2)OC1=O` [BI 135585], the “11beta-HSD1 inhibition in AT” value in series [1] (24 h after dosing) is recorded as 90%.
With `N#Cc1ccc(-c2ccc(S(=O)(=O)Nc3cccc(N)n3)cc2)cc1` [PF-915275], in series [2] (after 14 days of treatment), the “Maximum decrease in urinary (aTHF + THF)/THE ratio” value is 26%.
